pKd: −log10 of the molar value. Entries after “also recorded” stand apart in the source; their conditions may differ.
Legend:
[1] = system: afferent transmission in C-fiber and Aδ-fiber afferents (DRG); experiment: ex vivo single-fiber recordings of afferent transmission block by DRG stimulation with local Na,K-ATPase inhibition (3-compartment tissue chamber)
Excerpt: FIG. 9A is a plot of ex vivo single-fiber recordings from afferent axons in a 3-compartment tissue chamber that isolates the DRG from the spinal nerve and dorsal root allowing focused pharmacological application.
Action potentials were evoked by stimulating the peripheral end of the spinal nerve, which is transmitted down the peripheral and central axons to be recorded by extracellular single-fiber recordings from split dorsal root filaments.

[2] = molecular target: α1 unit of Na,K-ATPase; details: read-out: Kd to block the α1 unit of Na,K-ATPase; cited from earlier work
[3] = in vivo; cited from earlier work
[4] = patients; cited from earlier work

SMILES: C[C@@H]1O[C@@H](O[C@H]2C[C@@H](O)[C@]3(CO)[C@H]4[C@H](O)C[C@]5(C)[C@@H](C6=CC(=O)OC6)CC[C@]5(O)[C@@H]4CC[C@]3(O)C2)[C@H](O)[C@H](O)[C@H]1O [ouabain]
- transmission block of C-fiber afferent by 10 Hz DRG stimulation ([1]; 10 Hz DRG stimulation combined with ouabain 10 μg/mL (17.1 μM), OBF for C-fibers ~50 Hz without drug): effectively blocks afferent transmission; also recorded: transmission block is achieved; also recorded: selectively block C-fiber afferents
- transmission block of Aδ-fiber afferent by 10 Hz DRG stimulation ([1]; 10 Hz DRG stimulation combined with ouabain 17.1 μM): unblocked; also recorded: unaffected
- transmission block by DRG stimulation as measured by the time to resume transmission following terminating the DRG stimulation ([1]; ouabain 10 μg/mL or 17.1 μM applied locally to the DRG in the middle compartment): significantly prolonged
- separation of optimal blocking frequency (OBF) between C-fibers and thinly myelinated Aδ-fibers ([1]; ouabain applied to the DRG): greater separation
- pKd [2]: 3.77 to 4.49

SMILES: C[C@H]1O[C@@H](O[C@H]2[C@@H](O)C[C@H](O[C@H]3[C@@H](O)C[C@H](O[C@H]4CC[C@@]5(C)[C@H](CC[C@@H]6[C@@H]5CC[C@]5(C)[C@@H](C7=CC(=O)OC7)CC[C@]65O)C4)O[C@@H]3C)O[C@@H]2C)C[C@H](O)[C@@H]1O [digitoxin]
- route of elimination from the body [3]: eliminated via the liver

SMILES: C[C@H]1O[C@@H](O[C@H]2[C@@H](O)C[C@H](O[C@H]3[C@@H](O)C[C@H](O[C@H]4CC[C@@]5(C)[C@H](CC[C@@H]6[C@@H]5C[C@@H](O)[C@]5(C)[C@@H](C7=CC(=O)OC7)CC[C@]65O)C4)O[C@@H]3C)O[C@@H]2C)C[C@H](O)[C@@H]1O [digoxin]
- serum level considered safe with no apparent side effects [4]: < 1.0 ng/mL

Reference: US20250128062A1 (priority 2023, published 2025)
